Values of other authors as cited in US7927486B2, “Polymer modified porous substrate for solid phase extraction” (priority 2005, dated 2011).

In the case of `CCCCNCC(O)c1ccc(O)cc1.CCCCNCC(O)c1ccc(O)cc1.O=S(=O)(O)O` (stereo not shown) [Bamathan hemisulfate], the “Log P” value is given as 1.29.
